Laboratory results published in PMC10324063, “Comparative Saturation Binding Analysis of ^64Cu-Labeled Somatostatin Analogues Using Cell Homogenates and Intact Cells” (ACS Omega, 2023).
Like-named read-outs stand apart in the source and are kept apart here. Marks after values point to notes of the source that are not given here. Values belong to the compound of their own block, whether it stands above or below them. Positions of bridges follow the written chain, without caps; N, C: chain ends. Non-standard residues stand in square brackets, D forms with d. Residues, ends and D or L forms follow the SMILES beside them. *: point of attachment. NODAGA = O=C(O)CN1CCN(CC(=O)O)CCN(C(CCC(=O)*)C(=O)O)CC1; dPhe(4-NHCONH2) = NC(=O)Nc1ccc(C[C@@H](N)C(=O)O)cc1; Dihydroorotyl(S) = O=C1C[C@@H](C(=O)*)NC(=O)N1; Phe(4-Cl) = N[C@@H](Cc1ccc(Cl)cc1)C(=O)O; Phe(4-NH2) = Nc1ccc(C[C@H](N)C(=O)O)cc1

Assays:
[1] = Radioligand stability toward MPC cell homogenate under assay conditions; format: in vitro ADME, mouse; details: 40 nM radioligand, 37 °C, radio-HPLC of supernatant
Description: (§1) Considering the aforementioned exposure of the radioligands to intracellular components in cell homogenates, a degradation by intracellular proteases could lead to reduced radioligand concentrations and thus apparently higher Kd values. While most of the serine and cysteine proteases might be inhibited by the used inhibitor cocktail during homogenization (see Materials and Methods), a residual proteolytic activity cannot be excluded. Therefore, for the two radioligands, [^64Cu]Cu-NODAGA-NES2-TATE and [^64Cu]Cu-NODAGA-NES5-TATE, the stability toward cell homogenates and intact cells under assay conditions were exemplarily examined (Figure S3 in the Supporting Information).
(§2) Figure S3: Stability toward cell homogenate and intact cells
(§3) [64Cu]Cu-NODAGA-NES2-TATE and [64Cu]Cu-NODAGA-NES5-TATE (40 nM) were incubated at 37°C under assay conditions in the presence of MPC cell homogenate or MPC intact cells. After 1 h, an aliquot (160 µL) was withdrawn, mixed with “Supersol” (320 µL), which consists of 20% ethanol, 0.5% Triton X-100, 5 mM EDTA, 0.5 mM o-phenanthroline, and 0.1% saponin. This was followed by centrifugation at 13,500 rpm for 3 min (Thermo Scientific Heraeus Fresco 21). The supernatant was analyzed by radio-HPLC.1, 2 […]
(§4) (1 picture or pasted object on this page, not shown here)

MPC cells [2] = system: MPC cells; set-up: method as in Brandt et al.[16], Brandt et al.[17]; details: intact MPC cells, 20 nM radioligand, 1 h, 37 °C, acid wash glycine pH 2.8; previously published; ref Brandt et al.[16], Brandt et al.[17]; cited from earlier work
[3] = Radioligand stability toward intact MPC cells under assay conditions; format: in vitro ADME, mouse; details: 40 nM radioligand, 37 °C, radio-HPLC of supernatant
Description: as §1, §2, §3, §4

MPC cells [4] = experiment: Cell binding and uptake (acid wash) in MPC cells; format: cell-based, mouse; details: intact MPC cells, 20 nM radioligand, 1 h, 37 °C, acid wash 0.05 M glycine pH 2.8 for 5 min; nonspecific with 20 μM Acetyl-TATE; from mean values of one experiment in sextuplicate
Description: MPC cells were seeded into collagen-coated 24-well microplates and cultivated for 4 days. All washing steps were performed using PBS containing 0.9 mM CaCl2 and 0.5 mM MgCl2. Total radioligand uptake was measured after incubation with the radioligand (Am = 30 GBq/μmol) at a final concentration of 20 nM in RPMI 1640 medium with GlutaMAX supplement (Thermo Fisher Scientific) for 1 h at 37 and 4 °C. Nonspecific binding was determined in the presence of 20 μM Acetyl-TATE. The uptake fraction was measured after acid wash of cell surface-bound radioligand with wash buffer containing 0.05 M glycine, pH 2.8, for 5 min. The activity of cell homogenates was measured using the γ counter Wizard (PerkinElmer). The protein content of cell homogenates was measured as described above.
Nonspecific binding was determined in the presence of 20 µM Acetyl -TATE (radioligand concentration of 20 nM). Data shown in A and B are mean values (±SD) of one experiment, which was performed in sextuplicate. In C, the uptake fraction (“internalized” or not acid releasable radioligand, red bars in A, mean values) is expressed as percentage of specific total-bound radioligand (blue bars in A, mean values). The difference to 100% was assigned to “surface-bound” radioligand. For a better overview, the compound names were abbreviated. […]
specific binding of radioligand
Incubation at 37°C for 1 h […]

SST2 [5] = target: T1, SST2 (Mus musculus, UniProt P30875); experiment: Saturation binding of 64Cu-labeled radioligands to intact MPC cells (adherent); details: 1 h, 37 °C, mean (68% confidence interval) of one experiment in duplicate or triplicate
T1 construct: endogenous in cells; host or cells: MPC (mouse pheochromocytoma) cells, passages 35-40
T1 sequence (P30875 whole entry): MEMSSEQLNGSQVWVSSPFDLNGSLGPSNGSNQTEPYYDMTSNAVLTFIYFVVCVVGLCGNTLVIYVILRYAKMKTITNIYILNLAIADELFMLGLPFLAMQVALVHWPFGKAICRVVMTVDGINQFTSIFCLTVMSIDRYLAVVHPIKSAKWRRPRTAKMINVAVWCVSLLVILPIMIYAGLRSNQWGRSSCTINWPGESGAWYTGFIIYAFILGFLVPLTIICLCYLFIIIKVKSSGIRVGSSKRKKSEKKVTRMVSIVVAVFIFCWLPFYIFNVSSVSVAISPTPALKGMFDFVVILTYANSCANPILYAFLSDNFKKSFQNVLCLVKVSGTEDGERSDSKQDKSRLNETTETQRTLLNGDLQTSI
Description: A number of 3 × 10^5 cells/cm^2 were seeded in collagen-coated 48-well microplates (CELLSTAR 48 Well Cell Culture Multiwell Plates, Polystyrene, Greiner bio-one, Item no. 677180) and grown for three days. For binding assays, cell culture medium was removed and replaced by fresh medium supplemented with the radioligand (Am = 25 MBq/nmol) at increasing final concentrations between 0.321 and 40 nM (final sample volume 0.2 mL). […] Samples were incubated for 60 min at 37 °C. Incubation was stopped by washing with ice-cold Dulbecco’s PBS. Cells were lysed with 0.1 M NaOH containing 1% (w/v) SDS. Activity was measured in cell homogenates and in a series of radioligand standards containing increasing molar amounts between 0.06 and 8 pmol using the gamma counter Wizard (PerkinElmer). […] Measurements for total binding were performed in triplicate, while measurements for nonspecific binding were performed in duplicates.
Plots of “total binding” = f(radioligand) were analyzed by nonlinear regressions using the model of “one site—total, accounting for ligand depletion” as implemented in GraphPad Prism and Plots of “nonspecific binding” = f(radioligand) were analyzed by linear regressions. For the ligand depletion model, the term “NS” was constrained to the respective slopes obtained by the linear regressions. […]

SST2 [6] = target: T1, SST2; experiment: Saturation binding of 64Cu-labeled radioligands to MPC cell homogenates; details: read-out: Kd, MPC cell homogenate
Description: MPC cells (passages 35–40) were routinely cultured in collagen-coated flasks as described elsewhere[49] and harvested at 70–80% confluency in Dulbecco’s phosphate-buffered saline containing 2.0 mM ethylenediaminetetraacetic acid (EDTA) at 4 °C for 30 min. Cells were resuspended and frozen in fetal bovine serum containing 10% (v/v) DMSO and stored at −70 °C. After thawing, cells were washed and resuspended in ice-cold saturation assays buffer, pH 7.4, containing 50 mM Tris-HCl, 1 mM EDTA, 0.5 mM o-phenanthroline, and 0.1% (w/v) bovine serum albumin. Cells were homogenized in ice-cold saturation assay buffer supplemented with complete EDTA-free proteinase inhibitor (Roche, Basel Switzerland) using a Dounce homogenizer. Protein content of cell homogenates was measured at A280nm (setting 1 Abs = 1 mg/mL) using a nanodrop spectrophotometer (Thermo-Fisher Scientific).
For the measurement of total binding, 0.155 mL of cell homogenates were incubated with radioligands (molar activity (Am) = 25 MBq/nmol) at increasing final concentrations between 0.625 and 40 nM (final sample volume 0.2 mL) in Polystyrene tubes (5 mL, round bottom, clear, Greiner bio-one, Item no. 115101). […] Activity bound to filters was measured using the gamma counter Wizard (PerkinElmer). Activity in a series of radioligand standards was measured at increasing molar amounts between 0.625 and 40 nM. […]

- stability (radioligand remaining stable) after 1 h of incubation with MPC cell homogenate [1]: ≥ 87%
- stability (radioligand remaining stable) after 1 h of incubation with intact MPC cells [3]: ≥ 87%
Compound: C[C@@H](O)[C@H](NC(=O)[C@@H]1CSSC[C@H](NC(=O)[C@@H](Cc2ccccc2)NC(=O)COCCOCCNC(=O)[C@H](CCCCn2cc(CCC(=O)N[C@@H](CCCCNC(=O)CCCc3ccc(I)cc3)C(=O)O)nn2)NC(=O)[C@H](Cc2ccccc2)NC(=O)CNC(=O)[C@@H](CCCNC(=N)N)NC(=O)c2ccc(CNC(=O)CCC(C(=O)O)N3CCN(CC(=O)O)CCN(CC(=O)O)CC3)cc2)C(=O)N[C@@H](Cc2ccc(O)cc2)C(=O)N[C@H](Cc2c[nH]c3ccccc23)C(=O)N[C@@H](CCCCN)C(=O)N[C@@H]([C@@H](C)O)C(=O)N1)C(=O)O (stereo partly shown) [NES5-TATE]
- uptake fraction (internalized or not acid releasable radioligand) as percentage of specific total-bound radioligand (MPC cells [2]): 62 ^d %

Compound: CCCC[C@H](NC(=O)CCC(C(=O)O)N1CCN(CC(=O)O)CCN(CC(=O)O)CC1)C(=O)N[C@H](C(=O)N[C@@H](CCCCN=[N+]=[N-])C(=O)NCCOCCOCC(=O)N[C@H](Cc1ccccc1)C(=O)N[C@H]1CSSC[C@@H](C(=O)N[C@H](C(=O)O)[C@@H](C)O)NC(=O)[C@H]([C@@H](C)O)NC(=O)[C@H](CCCCN)NC(=O)[C@@H](Cc2c[nH]c3ccccc23)NC(=O)[C@H](Cc2ccc(O)cc2)NC1=O)C(C)C (stereo partly shown) [NES1-TATE]
- uptake fraction (internalized or not acid releasable radioligand) as percentage of specific total-bound radioligand (MPC cells [2]): 49 ^d %

Compound: C[C@@H](O)[C@H](NC(=O)[C@@H]1CSSC[C@H](NC(=O)[C@@H](Cc2ccccc2)NC(=O)COCCOCCNC(=O)[C@H](CCCCN=[N+]=[N-])NC(=O)[C@H](Cc2ccccc2)NC(=O)CNC(=O)[C@@H](CCCNC(=N)N)NC(=O)c2ccc(CNC(=O)CCC(C(=O)O)N3CCN(CC(=O)O)CCN(CC(=O)O)CC3)cc2)C(=O)N[C@@H](Cc2ccc(O)cc2)C(=O)N[C@H](Cc2c[nH]c3ccccc23)C(=O)N[C@@H](CCCCN)C(=O)N[C@@H]([C@@H](C)O)C(=O)N1)C(=O)O (stereo partly shown) [NES4-TATE]
- uptake fraction (internalized or not acid releasable radioligand) as percentage of specific total-bound radioligand (MPC cells [2]): 53 ^d %

Compound: C[C@@H](O)[C@H](NC(=O)[C@@H]1CSSC[C@H](NC(=O)[C@@H](Cc2ccccc2)NC(=O)COCCOCCNC(=O)[C@H](CCCCN=[N+]=[N-])NC(=O)[C@H](Cc2ccccc2)NC(=O)CNC(=O)c2ccc(CNC(=O)CCC(C(=O)O)N3CCN(CC(=O)O)CCN(CC(=O)O)CC3)cc2)C(=O)N[C@@H](Cc2ccc(O)cc2)C(=O)N[C@H](Cc2c[nH]c3ccccc23)C(=O)N[C@@H](CCCCN)C(=O)N[C@@H]([C@@H](C)O)C(=O)N1)C(=O)O (stereo partly shown) [NES3-TATE]
- uptake fraction (internalized or not acid releasable radioligand) as percentage of specific total-bound radioligand (MPC cells [2]): 68 ^d %

Compound: C#CC[C@H](NC(=O)CCC(C(=O)O)N1CCN(CC(=O)O)CCN(CC(=O)O)CC1)C(=O)NCCOCCOCC(=O)N[C@H](Cc1ccccc1)C(=O)N[C@H]1CSSC[C@@H](C(=O)N[C@H](C(=O)O)[C@@H](C)O)NC(=O)[C@H]([C@@H](C)O)NC(=O)[C@H](CCCCN)NC(=O)[C@@H](Cc2c[nH]c3ccccc23)NC(=O)[C@H](Cc2ccc(O)cc2)NC1=O (stereo partly shown) [Pra-PEG2-TATE]
- uptake fraction (internalized or not acid releasable radioligand) as percentage of specific total-bound radioligand (MPC cells [4]): 48%

Compound: C[C@@H](O)[C@H](NC(=O)[C@@H]1CSSC[C@H](NC(=O)[C@@H](Cc2ccccc2)NC(=O)COCCOCCNC(=O)[C@H](Cc2cn(CCCCC(=O)N[C@H](CCCCNC(=O)CCCc3ccc(I)cc3)C(=O)O)nn2)NC(=O)CCC(C(=O)O)N2CCN(CC(=O)O)CCN(CC(=O)O)CC2)C(=O)N[C@@H](Cc2ccc(O)cc2)C(=O)N[C@H](Cc2c[nH]c3ccccc23)C(=O)N[C@@H](CCCCN)C(=O)N[C@@H]([C@@H](C)O)C(=O)N1)C(=O)O (stereo partly shown) [cLAB1-TATE]
- uptake fraction (internalized or not acid releasable radioligand) as percentage of specific total-bound radioligand (MPC cells [4]): 66%

- stability (radioligand remaining stable) after 1 h of incubation with MPC cell homogenate [1]: ≥ 87%
- stability (radioligand remaining stable) after 1 h of incubation with intact MPC cells [3]: ≥ 87%
Compound: CCCC[C@H](NC(=O)c1ccc(CNC(=O)CCC(C(=O)O)N2CCN(CC(=O)O)CCN(CC(=O)O)CC2)cc1)C(=O)N[C@H](C(=O)N[C@@H](CCCCN=[N+]=[N-])C(=O)NCCOCCOCC(=O)N[C@H](Cc1ccccc1)C(=O)N[C@H]1CSSC[C@@H](C(=O)N[C@H](C(=O)O)[C@@H](C)O)NC(=O)[C@H]([C@@H](C)O)NC(=O)[C@H](CCCCN)NC(=O)[C@@H](Cc2c[nH]c3ccccc23)NC(=O)[C@H](Cc2ccc(O)cc2)NC1=O)C(C)C (stereo partly shown) [NES2-TATE]
- uptake fraction (internalized or not acid releasable radioligand) as percentage of specific total-bound radioligand (MPC cells [2]): 56 ^d %

- Kd (SST2 [5]): 8.17 nM
- Kd (SST2 [6]): 5.35 nM
Compound: C[C@@H](O)[C@@H]1NC(=O)[C@H](CCCCN)NC(=O)[C@@H](Cc2ccc(NC(N)=O)cc2)NC(=O)[C@H](Cc2ccc(NC(=O)[C@@H]3CC(=O)NC(=O)N3)cc2)NC(=O)[C@H](NC(=O)[C@H](Cc2ccc(Cl)cc2)NC(=O)CCC(C(=O)O)N2CCN(CC(=O)O)CCN(CC(=O)O)CC2)CSSC[C@@H](C(=O)N[C@H](Cc2ccc(O)cc2)C(N)=O)NC1=O (stereo partly drawn) [JR11] ({NODAGA}-[Phe(4-Cl)][dC][Phe(4-NH2)](Dihydroorotyl(S))[dPhe(4-NHCONH2)]KTC[dY]-NH2; disulfide 2-7)
